Test results reported in ChEMBL document CHEMBL4619777, “A New Class of Dengue and West Nile Virus Protease Inhibitors with Submicromolar Activity in Reporter Gene DENV-2 Protease and Viral Replication Assays” (J Med Chem, 2020).

Experiments:
[1] = Permeability of the compound assessed as drug level in donor plate at 200 uM measured after 5 hrs at pH 7.4 by PAMPA; format: ADME; conditions: pH 7.4, 5 h, BLD = below limit of detection
[2] = Cytotoxicity against human HeLa cells assessed as reduction in cell viability measured after 24 hrs by celltiter-blue assay; format: cell-based
[3] = target: Genome polyprotein (dengue virus type 2) (UniProt P29990); test: Inhibition of Dengue virus serotype 2 NS2B-NS3 protease expressed in Escherichia coli BL21 lambda (DE3) cells at 50 uM using Abz-Nle-Lys-Arg-Arg-Ser-3-(NO2)Tyr as substrate preincubated for 15 mins followed by substrate addition and measured for 15 mins by FRET assay relative to control
Genome polyprotein [4] = target: Genome polyprotein (West Nile virus, UniProt P06935); test: Inhibition of West Nile virus NS2B-NS3 protease expressed in Escherichia coli BL21 lambda (DE3) cells using Abz-Gly-Leu-Lys-Arg-Gly-Gly-3-(NO2)Tyr as substrate preincubated for 15 mins followed by substrate addition measured for 15 mins by fluorimetric analysis
Genome polyprotein [5] = target: T1, Genome polyprotein (dengue virus type 2, UniProt P29990); test: Inhibition of Dengue virus serotype 2 NS2B-NS3 protease expressed in Escherichia coli BL21 lambda (DE3) cells using Abz-Nle-Lys-Arg-Arg-Ser-3-(NO2)Tyr as substrate preincubated for 15 mins followed by substrate addition and measured for 15 mins by FRET assay
[6] = target: Genome polyprotein (dengue virus type 2) (UniProt P29990); test: Inhibition of Dengue virus serotype 2 NS2B-NS3 protease transfected in human HeLa cells at 12.5 uM measured after 24 hrs by Renilla-luciferase reporter gene assay relative to control; format: cell-based
[7] = target: Genome polyprotein (West Nile virus) (UniProt P06935); test: Inhibition of West Nile virus NS2B-NS3 protease expressed in Escherichia coli BL21 lambda (DE3) cells at 50 uM using Abz-Gly-Leu-Lys-Arg-Gly-Gly-3-(NO2)Tyr as substrate preincubated for 15 mins followed by substrate addition measured for 15 mins by fluorimetric analysis relative to control
Prothrombin = Prothrombin (Homo sapiens, UniProt P00734); test: Inhibition of thrombin (unknown origin) at 25 uM using Boc-Val-Pro-Arg-AMC as substrate preincubated for 15 mins followed by substrate addition and measured for 15 mins by fluorimetric assay; conditions: 0.25 h
Trypsin = Trypsin (Homo sapiens, UniProt P07477+P07478+P35030); test: Inhibition of trypsin (unknown origin) at 50 uM using Boc-Val-Pro-Arg-AMC as substrate preincubated for 15 mins followed by substrate addition and measured for 15 mins by fluorimetric assay relative to control; format: protein assay; conditions: 0.25 h, 50 µM
Genome polyprotein [8] = target: T1, Genome polyprotein; test: Inhibition of Dengue virus serotype 2 NS2B-NS3 protease transfected in human HeLa cells measured after 24 hrs by Renilla-luciferase reporter gene assay; format: cell-based
dengue virus type 2 = test: Antiviral activity against DENV2 infected in human HuH7 cells assessed as reduction in virus titer at 12.5 uM measured after 48 hrs relative to control; format: functional; conditions: Huh-7, 48 h
Huh-7 = test: Cytotoxicity against human HuH7 cells assessed as reduction in cell viability at 12 uM measured after 48 hrs by celltiter-blue assay; format: cell-based; conditions: huh-7, 48 h

Chain of Genome polyprotein (West Nile virus, UniProt P06935) (P06935 1371-1501 limits assumed): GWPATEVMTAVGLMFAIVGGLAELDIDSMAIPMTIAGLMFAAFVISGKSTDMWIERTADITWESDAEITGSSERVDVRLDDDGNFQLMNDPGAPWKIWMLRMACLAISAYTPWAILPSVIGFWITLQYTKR
Chain of Genome polyprotein (West Nile virus, UniProt P06935) (P06935 1502-2120 limits assumed): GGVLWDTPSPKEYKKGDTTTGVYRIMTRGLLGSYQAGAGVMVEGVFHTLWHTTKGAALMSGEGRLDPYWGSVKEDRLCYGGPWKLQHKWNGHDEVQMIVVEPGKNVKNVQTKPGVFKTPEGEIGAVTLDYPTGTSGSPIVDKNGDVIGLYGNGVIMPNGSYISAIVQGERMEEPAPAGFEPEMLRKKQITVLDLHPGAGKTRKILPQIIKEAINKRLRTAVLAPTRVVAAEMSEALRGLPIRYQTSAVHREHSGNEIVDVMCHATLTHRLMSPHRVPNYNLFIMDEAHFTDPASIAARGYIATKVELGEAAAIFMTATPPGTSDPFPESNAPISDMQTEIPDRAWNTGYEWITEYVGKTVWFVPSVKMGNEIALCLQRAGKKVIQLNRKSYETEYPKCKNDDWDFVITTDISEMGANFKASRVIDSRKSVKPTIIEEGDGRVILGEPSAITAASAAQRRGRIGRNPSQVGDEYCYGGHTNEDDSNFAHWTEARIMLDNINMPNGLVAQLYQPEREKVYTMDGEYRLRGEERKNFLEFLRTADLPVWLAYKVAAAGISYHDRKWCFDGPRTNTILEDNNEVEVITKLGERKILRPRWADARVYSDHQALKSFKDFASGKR
Chain of Genome polyprotein (West Nile virus) (P06935 whole entry): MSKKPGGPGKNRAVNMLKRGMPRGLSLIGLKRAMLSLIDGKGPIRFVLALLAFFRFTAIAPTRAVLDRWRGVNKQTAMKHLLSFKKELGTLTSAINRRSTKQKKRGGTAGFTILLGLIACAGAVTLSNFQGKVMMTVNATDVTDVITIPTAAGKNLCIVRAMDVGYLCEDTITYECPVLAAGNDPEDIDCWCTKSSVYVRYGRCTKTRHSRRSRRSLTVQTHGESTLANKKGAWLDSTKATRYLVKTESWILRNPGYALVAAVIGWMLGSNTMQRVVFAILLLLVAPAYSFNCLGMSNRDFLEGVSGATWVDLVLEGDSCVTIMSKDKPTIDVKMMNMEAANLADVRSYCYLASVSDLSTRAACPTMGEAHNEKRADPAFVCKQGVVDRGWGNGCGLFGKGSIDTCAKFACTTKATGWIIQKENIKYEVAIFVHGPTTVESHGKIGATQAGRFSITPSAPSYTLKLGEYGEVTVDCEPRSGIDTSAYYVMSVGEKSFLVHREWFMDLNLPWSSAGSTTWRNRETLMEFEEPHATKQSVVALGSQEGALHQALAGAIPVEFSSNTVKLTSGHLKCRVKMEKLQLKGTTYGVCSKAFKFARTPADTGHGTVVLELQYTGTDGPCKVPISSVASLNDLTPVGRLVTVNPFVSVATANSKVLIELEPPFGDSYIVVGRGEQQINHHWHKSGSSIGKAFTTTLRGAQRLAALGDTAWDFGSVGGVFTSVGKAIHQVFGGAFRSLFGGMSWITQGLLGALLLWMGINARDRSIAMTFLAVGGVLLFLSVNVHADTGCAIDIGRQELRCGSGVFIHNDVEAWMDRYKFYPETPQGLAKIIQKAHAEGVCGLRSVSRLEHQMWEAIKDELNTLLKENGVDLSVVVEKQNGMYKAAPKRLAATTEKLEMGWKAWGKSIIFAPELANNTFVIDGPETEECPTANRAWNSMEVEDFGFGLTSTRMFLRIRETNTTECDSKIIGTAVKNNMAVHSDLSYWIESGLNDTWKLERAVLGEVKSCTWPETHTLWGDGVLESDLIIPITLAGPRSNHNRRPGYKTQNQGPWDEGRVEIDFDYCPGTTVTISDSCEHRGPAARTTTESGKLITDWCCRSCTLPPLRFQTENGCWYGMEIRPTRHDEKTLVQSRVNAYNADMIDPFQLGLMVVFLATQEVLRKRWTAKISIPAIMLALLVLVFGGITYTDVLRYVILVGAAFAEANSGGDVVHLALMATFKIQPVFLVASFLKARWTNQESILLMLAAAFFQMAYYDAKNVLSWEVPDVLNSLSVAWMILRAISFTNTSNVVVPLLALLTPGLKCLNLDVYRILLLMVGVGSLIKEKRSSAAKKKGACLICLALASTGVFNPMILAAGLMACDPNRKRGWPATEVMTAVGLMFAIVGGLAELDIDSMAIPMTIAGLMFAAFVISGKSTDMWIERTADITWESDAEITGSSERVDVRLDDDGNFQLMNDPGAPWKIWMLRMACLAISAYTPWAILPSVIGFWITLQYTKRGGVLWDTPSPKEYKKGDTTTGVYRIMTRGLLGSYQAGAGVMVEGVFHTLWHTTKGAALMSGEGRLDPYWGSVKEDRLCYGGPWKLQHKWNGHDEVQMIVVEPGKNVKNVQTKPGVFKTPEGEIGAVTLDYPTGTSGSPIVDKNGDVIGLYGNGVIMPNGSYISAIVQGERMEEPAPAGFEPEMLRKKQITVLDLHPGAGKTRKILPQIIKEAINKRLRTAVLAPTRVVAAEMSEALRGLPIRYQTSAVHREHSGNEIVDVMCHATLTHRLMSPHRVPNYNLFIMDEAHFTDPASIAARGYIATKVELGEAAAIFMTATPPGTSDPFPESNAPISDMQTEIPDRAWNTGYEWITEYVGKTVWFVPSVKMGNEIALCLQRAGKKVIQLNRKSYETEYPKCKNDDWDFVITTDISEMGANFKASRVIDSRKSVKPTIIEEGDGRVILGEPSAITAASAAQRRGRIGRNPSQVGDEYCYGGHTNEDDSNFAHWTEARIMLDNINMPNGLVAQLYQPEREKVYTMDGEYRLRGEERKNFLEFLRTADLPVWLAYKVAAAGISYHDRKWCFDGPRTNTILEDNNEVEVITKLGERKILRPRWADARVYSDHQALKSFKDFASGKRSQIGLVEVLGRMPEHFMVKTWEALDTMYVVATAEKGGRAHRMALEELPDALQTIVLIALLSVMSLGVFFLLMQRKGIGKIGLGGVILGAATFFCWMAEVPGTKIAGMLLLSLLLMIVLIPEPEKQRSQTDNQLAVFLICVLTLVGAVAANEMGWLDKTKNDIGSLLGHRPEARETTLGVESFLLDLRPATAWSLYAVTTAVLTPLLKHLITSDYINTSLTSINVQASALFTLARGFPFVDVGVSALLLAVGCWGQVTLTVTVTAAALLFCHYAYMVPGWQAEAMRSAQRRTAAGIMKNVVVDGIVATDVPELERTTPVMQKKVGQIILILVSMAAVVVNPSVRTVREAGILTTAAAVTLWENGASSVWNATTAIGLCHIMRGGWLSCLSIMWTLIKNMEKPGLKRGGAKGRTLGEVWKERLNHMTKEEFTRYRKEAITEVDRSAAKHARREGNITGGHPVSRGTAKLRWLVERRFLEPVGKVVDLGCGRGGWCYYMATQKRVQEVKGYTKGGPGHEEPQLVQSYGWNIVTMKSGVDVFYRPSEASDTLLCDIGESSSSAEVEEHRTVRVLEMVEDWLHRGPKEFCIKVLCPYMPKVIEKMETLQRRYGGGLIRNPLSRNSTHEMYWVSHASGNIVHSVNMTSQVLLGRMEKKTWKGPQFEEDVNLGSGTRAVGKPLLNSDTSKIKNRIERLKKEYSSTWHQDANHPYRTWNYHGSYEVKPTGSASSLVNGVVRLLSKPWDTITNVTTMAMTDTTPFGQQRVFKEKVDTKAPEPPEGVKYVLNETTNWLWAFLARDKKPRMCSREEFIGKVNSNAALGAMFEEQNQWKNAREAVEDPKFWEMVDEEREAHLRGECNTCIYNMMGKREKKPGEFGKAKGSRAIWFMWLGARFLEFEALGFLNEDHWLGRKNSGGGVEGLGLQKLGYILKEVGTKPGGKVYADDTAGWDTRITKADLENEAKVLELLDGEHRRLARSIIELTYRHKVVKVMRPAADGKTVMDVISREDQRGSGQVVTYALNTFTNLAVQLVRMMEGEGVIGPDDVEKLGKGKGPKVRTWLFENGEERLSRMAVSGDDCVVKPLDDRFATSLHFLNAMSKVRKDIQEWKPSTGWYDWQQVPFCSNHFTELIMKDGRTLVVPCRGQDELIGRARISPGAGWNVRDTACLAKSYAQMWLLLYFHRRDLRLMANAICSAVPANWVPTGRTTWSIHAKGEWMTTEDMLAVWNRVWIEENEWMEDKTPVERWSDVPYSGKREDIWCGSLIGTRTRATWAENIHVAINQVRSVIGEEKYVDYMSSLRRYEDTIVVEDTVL

| Structure (SMILES) | Drug uptake [1] | CC50 at 24 h [2] | inhibition [3] | IC50 (Genome polyprotein [4]) | IC50 (Genome polyprotein [5]) | inhibition [6] | inhibition [7] | inhibition (INH) (Prothrombin) | inhibition (INH) (Trypsin) | EC50 (Genome polyprotein [8]) | inhibition at 12.5 µM (dengue virus type 2) | Activity (Huh-7) |
| --- | --- | --- | --- | --- | --- | --- | --- | --- | --- | --- | --- | --- |
| CCCCCC(=O)N[C@H](C(=O)NCc1ccc(NC(=N)N)cc1)c1ccc(OCc2c(Cl)cccc2Cl)cc1.O=C(O)C(F)(F)F | Bld | > 50 µM | 97.5% | 6.2 µM | 2.9 µM | 41.5% | 101% | Not Active | Not Active | – | – | – |
| CCCCC(=O)N[C@H](C(=O)NCc1ccc(NC(=N)N)cc1)c1ccc(OCc2ccccc2)cc1.O=C(O)C(F)(F)F | – | > 50 µM | 22% | – | – | 69.4% | 11.2% | Not Active | Not Active | 2.8 µM | – | – |
| CCCCCC(=O)N[C@H](C(=O)NCc1ccc(CNC(=N)N)cc1)c1ccc(OCc2ccccc2)cc1.O=C(O)C(F)(F)F | – | > 50 µM | 104% | 37 µM | 14 µM | 66.3% | 98.6% | Not Active | Not Active | 6.3 µM | 79.5% | Non-Toxic |
| CCCCCC(=O)N[C@H](C(=O)NCCCCCCNC(=N)N)c1ccc(OCc2ccccc2)cc1 | – | > 50 µM | < 10% | – | – | 61% | 28.3% | Not Active | Not Active | 7.7 µM | – | – |
| N=C(N)Nc1ccc(CNC(=O)[C@@H](NC(=O)c2ccc(-c3ccc(Cl)cc3)cc2)c2ccc(OCc3ccccc3)cc2)cc1.O=C(O)C(F)(F)F | – | > 50 µM | 98.7% | 3.7 µM | 2 µM | 56.6% | 99.9% | Not Active | Not Active | 7.1 µM | 79.9% | Non-Toxic |
| CCCCCC(=O)N[C@H](C(=O)NCc1ccc(NC(=N)N)nc1)c1ccc(OCc2ccccc2)cc1.O=C(O)C(F)(F)F | – | > 50 µM | 93.9% | 23 µM | 19 µM | 67.7% | 96.8% | Not Active | Not Active | 5.9 µM | 31.5% | Non-Toxic |
| CCCCCC(=O)N[C@H](C(=O)NCc1ccc(CN(C)C)cc1)c1ccc(OCc2ccccc2)cc1 | – | > 12.5 µM | < 10% | – | – | 65.7% | < 10% | Not Active | Not Active | 6.7 µM | – | – |
| CCCCCC(=O)N[C@H](C(=O)NCc1ccc(NC(=N)N)cc1)c1ccc(OCc2ccc(C(C)(C)C)cc2)cc1.O=C(O)C(F)(F)F | – | > 12.5 µM | 98.1% | 16 µM | 13 µM | 38.7% | 98.9% | Not Active | Not Active | – | – | – |
| CCCCCC(=O)N[C@H](C(=O)NCCCCCCN)c1ccc(OCc2ccccc2)cc1 | – | > 50 µM | 18.1% | – | – | 45.8% | < 10% | Not Active | Not Active | 13 µM | – | – |
| N=C(N)Nc1ccc(CNC(=O)[C@@H](NC(=O)c2ccc(OCc3ccccc3)cc2)c2ccc(OCc3ccccc3)cc2)cc1.O=C(O)C(F)(F)F | Bld | > 12.5 µM | 106% | 7.1 µM | 4.4 µM | 69.8% | 98.7% | Not Active | Not Active | 2.1 µM | 27.4% | Non-Toxic |
| COc1cccc(COc2ccc(C(=O)N[C@H](C(=O)NCc3ccc(NC(=N)N)cc3)c3ccc(OCc4ccccc4)cc3)cc2)c1.O=C(O)C(F)(F)F | Bld | > 12.5 µM | 98.4% | 7.4 µM | 4.7 µM | 67.6% | 102% | Not Active | Not Active | 2.9 µM | 21.9% | Non-Toxic |
| CCCCCCCCCC(=O)N[C@H](C(=O)NCc1ccc(NC(=N)N)cc1)c1ccc(OCc2ccccc2)cc1.O=C(O)C(F)(F)F | Bld | > 50 µM | 99.8% | 5 µM | 2.3 µM | 65.8% | 102% | Not Active | Not Active | 2.3 µM | – | – |
| CCCCCC(=O)N[C@H](C(=O)NCc1ccc(N)nc1)c1ccc(OCc2ccccc2)cc1.O=C(O)C(F)(F)F | – | > 50 µM | 22.6% | – | – | 57% | 37.8% | Not Active | Not Active | 13 µM | – | – |
| CCCCCC(=O)N[C@H](C(=O)NCc1ccc(NC(=N)N)cc1)c1ccc(OCc2ccc(C(F)(F)F)cc2)cc1.O=C(O)C(F)(F)F | – | > 50 µM | 96.3% | 12 µM | 7.4 µM | 66% | 100% | Not Active | Not Active | 3 µM | 60.3% | Non-Toxic |
| N=C(N)Nc1ccc(CNC(=O)[C@@H](NC(=O)c2ccccc2-c2ccccc2)c2ccc(OCc3ccccc3)cc2)cc1.O=C(O)C(F)(F)F | – | > 50 µM | 93.3% | 35 µM | 24 µM | 30.1% | 88.1% | Not Active | Not Active | – | – | – |
| N=C(N)Nc1ccc(CNC(=O)[C@@H](NC(=O)c2ccc(OCc3ccc(Cl)cc3)cc2)c2ccc(OCc3ccccc3)cc2)cc1.O=C(O)C(F)(F)F | – | > 12.5 µM | 98.7% | 2.5 µM | 2.2 µM | 44.6% | 103% | Not Active | Not Active | – | – | – |
| CCCCCC(=O)N[C@H](C(=O)Nc1ccc2[nH]ncc2c1)c1ccc(OCc2ccccc2)cc1 | – | > 50 µM | 22.4% | – | – | 65.4% | 26% | Not Active | Not Active | 6.9 µM | – | – |
| CCCCCC(=O)N[C@@H](C(=O)NCc1ccc(NC(=N)N)cc1)c1ccc(OCc2ccc(Cl)c(Cl)c2)cc1.O=C(O)C(F)(F)F | – | > 50 µM | 97.3% | 8.3 µM | 5.7 µM | 51% | 101% | Not Active | Not Active | 16 µM | – | – |
| N=C(N)Nc1ccc(CNC(=O)[C@@H](NC(=O)Cc2ccc(-c3ccccc3)cc2)c2ccc(OCc3ccccc3)cc2)cc1.O=C(O)C(F)(F)F | Bld | > 50 µM | 101% | 1.8 µM | 1.3 µM | 16.3% | 99.3% | Not Active | Not Active | 20 µM | – | – |
| N=C(N)NCc1ccc(CNC(=O)[C@H](NC(=O)c2ccc(Oc3ccccc3)cc2)c2ccc(OCc3ccc(Cl)c(Cl)c3)cc2)cc1.O=C(O)C(F)(F)F | Bld | > 50 µM | 99.8% | 5.5 µM | 2.5 µM | 36% | 99.6% | Not Active | Not Active | – | – | – |
| CCCCCC(=O)N[C@H](C(=O)NCc1cccc(CN)c1)c1ccc(OCc2ccccc2)cc1 | – | > 12.5 µM | 97.2% | 27 µM | 30 µM | 71% | 85.4% | Not Active | Not Active | 4.2 µM | – | – |
